Reference: the supplement of paper PMC5412046

Assays:
[1] = tested on: SB.msgc-1; assay: AC50 for growth inhibition (viability) (log10 M); higher = less potent; details: SB.msgc-1 (sporadic gastric cancer)
Method in brief: (§1)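 A four-parameter fit of viability, normalised to DMSO, gave the log half-maximal activity concentration, and only high-quality curve classes were kept. Cells came from hereditary or sporadic gastric cancer patients, 500 per 1536 well, and were dosed for 48 h at 11 threefold dilutions from a final 46 μM. Readout was CellTiter-Glo luminescence on a ViewLux.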

[2] = tested on: SB.mhdgc-1; assay: as above; details: SB.mhdgc-1 (hereditary c.1380delA CDH1 gastric cancer)
Method in brief: as §1

For `c1cc(OCCN2CCCCC2)cc(-c2n[nH]c3ccc(-c4nc[nH]n4)cc23)c1` [CC-401], the “AC50 for growth inhibition (log10 M)” value [1] was -4.78 and the “AC50 for growth inhibition (log10 M)” value [2] was -4.78.

For `CN1CCN(c2cc(C(=O)Nc3ccc4c(c3)-c3c(c(C(N)=O)nn3-c3ccc(F)cc3)CC4)c(Cl)cn2)CC1` [PHA-408], the “AC50 for growth inhibition (log10 M)” value [1] was -5.93 and the “AC50 for growth inhibition (log10 M)” value [2] was -5.88.

For `CO[C@@H]1[C@H](N(C)C(=O)c2ccccc2)C[C@H]2O[C@]1(C)n1c3ccccc3c3c4c(c5c6ccccc6n2c5c31)C(=O)NC4` [Midostaurin], the “AC50 for growth inhibition (log10 M)” value [1] was -5.38 and the “AC50 for growth inhibition (log10 M)” value [2] was -5.63.

With `COc1cc2c(NC3CCN(C(C)C)CC3)nc(C3CCCCC3)nc2cc1OCCCN1CCCC1` [UNC-0638] the “AC50 for growth inhibition (log10 M)” value [1] was -4.78 and the “AC50 for growth inhibition (log10 M)” value [2] was -5.58.

For `O=C(Nc1cc(C(F)(F)F)cc(C(F)(F)F)c1)c1cc(Cl)ccc1O` [IMD-0354], the “AC50 for growth inhibition (log10 M)” value [1] was -5.73 and the “AC50 for growth inhibition (log10 M)” value [2] was -5.78.

`CCOc1ccc(Cc2cc([C@@H]3O[C@H](CO)[C@@H](O)[C@H](O)[C@H]3O)ccc2Cl)cc1` [Dapagliflozin] was tested, and the “AC50 for growth inhibition (log10 M)” value [1] was -4.98 and the “AC50 for growth inhibition (log10 M)” value [2] was -5.18.

With `COc1ccc(-c2cc3nccn3c(Nc3ncccc3C(N)=O)n2)cc1OC` [BAY61-3606] the “AC50 for growth inhibition (log10 M)” value [1] was -4.98 and the “AC50 for growth inhibition (log10 M)” value [2] was -5.53.

For `N/C(=N\C(=O)c1nc(Cl)c(N)nc1N)NCc1ccccc1` [Benzamil], the “AC50 for growth inhibition (log10 M)” value [1] was -5.53 and the “AC50 for growth inhibition (log10 M)” value [2] was -5.73.

`Cc1cc(Nc2cc(N3CCN(C)CC3)nc(/C=C/c3ccccc3)n2)n[nH]1` was tested, and the “AC50 for growth inhibition (log10 M)” value [1] was -4.27 and the “AC50 for growth inhibition (log10 M)” value [2] was -4.32.

With `CN(C)c1ccc(O)c2c1C[C@H]1C[C@H]3[C@H](N(C)C)C(O)=C(C(N)=O)C(=O)[C@@]3(O)C(O)=C1C2=O` [Minocycline] the “AC50 for growth inhibition (log10 M)” value [1] was -5.38 and the “AC50 for growth inhibition (log10 M)” value [2] was -5.43.

`C/C=C1\NC(=O)[C@H]2CSSCC/C=C\[C@H](CC(=O)N[C@H](C(C)C)C(=O)N2)OC(=O)[C@H](C(C)C)NC1=O` [Romidepsin] was tested, and the “AC50 for growth inhibition (log10 M)” value [1] was -7.83 and the “AC50 for growth inhibition (log10 M)” value [2] was -7.63.

With `Cc1cn2c(-c3cn[nH]c3)cnc2c(Nc2ccc(C(=O)N3CCNCC3)cc2F)n1` the “AC50 for growth inhibition (log10 M)” value [1] was -4.83 and the “AC50 for growth inhibition (log10 M)” value [2] was -4.98.

`C[C@@H]1CN[C@H]2[C@@H](C)[C@@]\3(CC[C@H]\4[C@@H]5C/C=C6/C[C@@H](O)CC[C@]6(C)[C@H]5CC4=C3C)O[C@@H]2C1` [Cyclopamine] was tested, and the “AC50 for growth inhibition (log10 M)” value [1] was -4.73 and the “AC50 for growth inhibition (log10 M)” value [2] was -4.68.

`CCOC(=O)C(C#N)C\1C2=CC(=CC=C2O\C(=C1C(=O)OCC)N)Br` (centres undefined) [HA-14-1] was tested, and the “AC50 for growth inhibition (log10 M)” value [1] was -4.63 and the “AC50 for growth inhibition (log10 M)” value [2] was -4.68.

In the case of `CC1=CC2=C(O1)C(=C3OC(=O)\C=C(C)/C3=C2)C` [Trioxsalen], the “AC50 for growth inhibition (log10 M)” value [1] is reported as -4.93 and the “AC50 for growth inhibition (log10 M)” value [2] is reported as -5.38.

`CN[C@H]1CCC2=CC(=C(OC)C(=C2C/3=C/C=C(OC)\C(=O)/C=C13)OC)OC` [Demecolcine] was tested, and the “AC50 for growth inhibition (log10 M)” value [1] was -8.83 and the “AC50 for growth inhibition (log10 M)” value [2] was -8.13.

In the case of `CC\1=C(C(\N=C(/N1)C2=CC(=NC=C2)Cl)C3=C(F)C=C(Cl)C=C3)/C(=O)NC4=C(F)C=C5[NH]N=CC5=C4` (centres undefined) [GSK-25], the “AC50 for growth inhibition (log10 M)” value [1] is reported as -4.63 and the “AC50 for growth inhibition (log10 M)” value [2] is reported as -5.08.

In the case of `O=C(/C=C/c1ccc(CN(CCO)CCc2c[nH]c3ccccc23)cc1)NO` [Dacinostat], the “AC50 for growth inhibition (log10 M)” value [1] is reported as -6.63 and the “AC50 for growth inhibition (log10 M)” value [2] is reported as -5.88.

For `CCOC(=O)[C@H](CCc1ccccc1)N[C@H]1CCc2ccccc2N(CC(=O)O)C1=O` [Benzapril], the “AC50 for growth inhibition (log10 M)” value [1] was -4.68 and the “AC50 for growth inhibition (log10 M)” value [2] was -5.03.

With `C[C@]1(O)CC(C1)C2=NC(=C3[N]2C=CN=C3N)C4=CC5=C(C=C4)C=CC(=N5)C6=CC=CC=C6` (centres undefined) [Linsitinib] the “AC50 for growth inhibition (log10 M)” value [1] was -4.78 and the “AC50 for growth inhibition (log10 M)” value [2] was -5.03.

In the case of `COc1ccc(C(=O)CC(=O)c2ccc(C(C)(C)C)cc2)cc1` [Avobenzone], the “AC50 for growth inhibition (log10 M)” value [1] is reported as -5.58 and the “AC50 for growth inhibition (log10 M)” value [2] is reported as -6.18.

`C[C@H](NCc1ccc(OCc2cccc(F)c2)cc1)C(N)=O` [Safinamide mesilate] was tested, and the “AC50 for growth inhibition (log10 M)” value [1] was -4.78 and the “AC50 for growth inhibition (log10 M)” value [2] was -5.08.

With `Cc1cc(C(=O)N2CCN(c3cccc(Cl)c3)CC2)n(-c2ccccc2)n1` [XRP-44X] the “AC50 for growth inhibition (log10 M)” value [1] was -5.48 and the “AC50 for growth inhibition (log10 M)” value [2] was -6.38.

With `Cc1cn(-c2cc(NC(=O)c3ccc(C)c(Nc4nccc(-c5cccnc5)n4)c3)cc(C(F)(F)F)c2)cn1` [Nilotinib] the “AC50 for growth inhibition (log10 M)” value [1] was -4.83 and the “AC50 for growth inhibition (log10 M)” value [2] was -5.18.

In the case of `O=C(OC)[C@]12CC[C@@]3(C)[C@]4(C)CC[C@H]5[C@@](C)(C)C(=O)C(=C[C@]5(C)C4=CC(=O)[C@@H]3[C@@H]2C[C@](C)(C)CC1)C#N` [Bardoxolone methyl], the “AC50 for growth inhibition (log10 M)” value [1] is reported as -6.33 and the “AC50 for growth inhibition (log10 M)” value [2] is reported as -6.28.

`C[C@@]12O[C@@H](C[C@]1(O)CO)n1c3ccccc3c3c4c(c5c6ccccc6n2c5c31)CNC4=O` [Lestaurtinib] was tested, and the “AC50 for growth inhibition (log10 M)” value [1] was -5.48 and the “AC50 for growth inhibition (log10 M)” value [2] was -6.33.

With `Cc1ccc(CN2CCNCC2)cc1NC(=O)CNc1ccc(F)c(F)c1` the “AC50 for growth inhibition (log10 M)” value [1] was -5.38 and the “AC50 for growth inhibition (log10 M)” value [2] was -5.93.
